Laboratory results as given in patent publication EP4722219A1 (Gan & Lee Pharmaceuticals Co., Ltd., priority 2023, dated 2024).

Experiments:
Assay type in all cases: cell-based
ERα [1] = molecular target: T1, ERα (Homo sapiens, UniProt P03372); test: ERα degradation in T-47D cells (Western blot); conditions: 4 hours
T1 sequence (P03372 1-595): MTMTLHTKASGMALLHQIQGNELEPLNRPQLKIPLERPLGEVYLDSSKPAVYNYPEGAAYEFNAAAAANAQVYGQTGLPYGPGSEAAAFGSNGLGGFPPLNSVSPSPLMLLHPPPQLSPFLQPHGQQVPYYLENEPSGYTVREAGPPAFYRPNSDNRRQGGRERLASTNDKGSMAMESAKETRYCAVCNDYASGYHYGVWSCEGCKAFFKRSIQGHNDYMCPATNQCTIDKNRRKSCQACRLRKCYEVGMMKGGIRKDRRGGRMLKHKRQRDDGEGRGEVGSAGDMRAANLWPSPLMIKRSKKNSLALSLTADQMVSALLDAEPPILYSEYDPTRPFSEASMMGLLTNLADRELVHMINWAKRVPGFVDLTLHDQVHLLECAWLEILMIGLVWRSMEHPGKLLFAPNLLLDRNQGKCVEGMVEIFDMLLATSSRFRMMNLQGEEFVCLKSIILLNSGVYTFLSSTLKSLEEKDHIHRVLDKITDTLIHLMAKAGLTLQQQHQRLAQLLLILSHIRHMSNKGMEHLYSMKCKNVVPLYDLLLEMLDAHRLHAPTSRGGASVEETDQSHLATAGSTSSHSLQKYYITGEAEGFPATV
How it was run: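 T-47D cells at 3×10^5 cells/well were exposed to compound (final 0.15-1000 nM, DMSO) for 4 hours at 37°C and then lysed in RIPA. ERα was measured by Western blot (20 µg protein) with infrared imaging. The degradation rate was calculated from ERα/internal-reference grayscale ratios relative to control.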

T-47D cells = test: Inhibition of cell proliferation in T-47D cells (CCK-8); conditions: 6 days treatment, CCK-8 cell viability
How it was run: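 T-47D cells (3,000/well) in RPMI-1640 with 10% FBS were exposed to a concentration range of PROTAC compounds for 6 days at 37 °C, 5% CO2. Viability read by CCK-8; IC50 fitted from inhibition rate.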

ERα [2] = molecular target: T1, ERα; test: ERα degradation in MCF-7 cells (Western blot); parameters: host or cells: MCF-7; conditions: 4 hours
How it was run: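 MCF-7 cells treated 4 h at 37 °C with compound at 0.15–1000 nM final. ERα in lysates measured by Western blot (20 µg protein), normalized to an internal reference protein; degradation rate calculated against control.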

MCF-7 cells = test: Inhibition of cell proliferation in MCF-7 cells (CCK-8); conditions: MCF-7 cell proliferation, 6 days treatment
How it was run: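 MCF-7 cells, 800 per well in DMEM plus 10% FBS, exposed to graded PROTAC concentrations for 6 days at 37 °C, 5% CO2. Viability by CCK-8; IC50 fitted from inhibition rates.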

Row | SMILES | Degradation rate of ERα in T-47D cells (%) (ERα [1]; 1nM) | Degradation rate of ERα in T-47D cells (%) (ERα [1]; 10nM) | IC50 (T-47D cells; Homo sapiens, T47D, 144 h) | Degradation rate of ERα in MCF-7 cells (%) (ERα [2]; 1nM) | Degradation rate of ERα in MCF-7 cells (%) (ERα [2]; 10nM) | IC50 (MCF-7 cells; Homo sapiens, MCF7, 144 h) | IC50 (T-47D cells) | IC50 (MCF-7 cells)
1 | Cn1c(=O)n(C2CCC(=O)NC2=O)c2ccc3c(c21)OCC31CCN(CC2CCN(C(=O)C3CCN(c4ccc([C@@H]5c6ccc(O)cc6CC[C@@H]5c5ccccc5)cc4)CC3)CC2)CC1 (stereo partly drawn) [ER-P-63, 3-(1'-((1-(1-(4-((1R,2S)-6-hydroxy-2-phenyl-1,2,3,4-tetrahydronaphthalen-1-yl)phenyl)piperidine-4-carbonyl)piperidin-4-yl)methyl)-1-methyl-2-oxo-1,2-dihydro-3H,7H-spiro[benzofuro[6,7-d]imidazole-6,4'-piperidin]-3-yl)piperidine-2,6-dione] | 56% | 65% | 1.15 nM | 53% | 56% | 3750 nM | – | –
2 | O=C1CCC(N2Cc3c(ccc4c3OCC43CCC4(CC3)CN(C(=O)C3CCN(c5ccc([C@@H]6c7ccc(O)cc7CC[C@@H]6c6ccccc6)cc5)CC3)C4)C2=O)C(=O)N1 (stereo partly drawn) [ER-P-4, 3-(1-(1-(4-(((1R,2S)-6-hydroxy-2-phenyl-1,2,3,4-tetrahydronaphthalen-1-yl)phenyl)piperidine-4-carbonyl)-6'-oxo-6',8'-dihydro-2'H,7'H-diazetidine-3,1'-cyclohexane-4',3"-furo[2,3-e]isoindol]-7'-yl)piperidine-2,6-dione] | 21% | 54% | 3.63 nM | 9% | 20% | 92000 nM | – | –
3 | COc1cc2c(cc1C(=O)N[C@H]1CCC(=O)NC1=O)OCC[C@H]1CN(CC3CCC(OC4CCN(c5ccc([C@@H]6c7ccc(O)cc7CC[C@@H]6c6ccccc6)cc5)CC4)CC3)CCN21 (stereo partly drawn) [ER-P-46, (S)-N-((S)-2,6-dioxopiperidin-3-yl)-3-(((1S,4R)-4-((1-(4-((1R,2S)-6-hydroxy-2-phenyl-1,2,3,4-tetrahydronaphthalen-1-yl)phenyl)piperidin-4-yl)oxy)cyclohexyl)methyl)-10-methoxy-2,3,4,4a,5,6-hexahydro-1H-benzo [b]pyrazino[1,2-d][1,4]oxazepine-9-carboxamide] | 35% | 55% | – | 6% | 36% | – | 1.17 nM | 731 nM
4 | O=C1CCC(Nc2ccc3c(c2)OC[C@@H]2CN(C4CCC5(CC4)CN(c4ccc([C@@H]6c7ccc(O)cc7CC[C@@H]6c6ccccc6)cc4)C5)CCN32)C(=O)N1 (stereo partly drawn) [ER-P-36, 3-(((S)-3-(2-(4-((1R,2S)-6-hydroxy-2-phenyl-1,2,3,4-tetrahydronaphthalen-1-yl)phenyl)-2-azaspiro[3.5]nonan-7-yl)-1,2,3,4,4a,5-hexahydrobenzo[b]pyrazino[1,2-d][1,4]oxazin-8-yl)amino)piperidine-2,6-dione] | 0% | 1% | 25.1 nM | 7% | -11% | 2280 nM | – | –
5 | Cn1c(=O)n(C2CCC(=O)NC2=O)c2ccc3c(c21)OCC31CCN(C2CC3(CCN(c4ccc([C@@H]5c6ccc(O)cc6CC[C@@H]5c5ccccc5)cc4)CC3)C2)CC1 (stereo partly drawn) [ER-P-17, 3-(1'-(7-(4-((1R,2S)-6-hydroxy-2-phenyl-1,2,3,4-tetrahydronaphthalen-1-yl)phenyl)-7-azaspiro[3.5]nonan-2-yl)-1-methyl-2-oxo-1,2-dihydro-3H,7H-spiro[benzofuro[6,7-d]imidazole-6,4'-piperidin]-3-yl)piperidine-2,6-dione] | 22% | 30% | – | 37% | 33% | – | 20.9 nM | 4560 nM
6 | CN(c1ccc2c(c1)COC[C@H]1CN(CC3CCC(OC4CCN(c5ccc([C@@H]6c7ccc(O)cc7CC[C@@H]6c6ccccc6)cc5)CC4)CC3)CCN21)C1CCC(=O)NC1=O (stereo partly drawn) [ER-P-52, 3-(((R)-3-((4-((1-(4-((1R,2S)-6-hydroxy-2-phenyl-1,2,3,4-tetrahydronaphthalen-1-yl)phenyl)piperidin-4-yl)oxy)cyclohexyl)methyl)-1,2,3,4,4a,5-hexahydro-7H-benzo[e]pyrazino[2,1-c][1,4]oxazepin-9-yl)(methyl)amino)piperidine-2,6-dione] | 6% | 6% | 248 nM | -2% | 7% | 854 nM | – | –
